“Also recorded” adds a separate entry of the source.
What was measured:
[1] = tested on: mouse psoriasis model induced by 5% IMQ; experiment: Neutrophil infiltration (Ly6G+ cells, immunofluorescence) of mouse psoriasis model; assay type: in vivo; settings: 5% IMQ model
[2] = tested on: mouse psoriasis model induced by 5% IMQ; experiment: Content of related inflammatory factors (ELISA) in skin of mouse psoriasis model; assay type: in vivo
Experimental: Contents of IL17, IL23, CXCL15 and myeloperoxidase (MPO) in the skin of the mouse were detected by enzyme-linked immunosorbent assay (ELISA), and ELISA kits for various inflammatory factors were all purchased from ELISA Biotechnology Co., Ltd. Specific operation steps were briefly described as follows according to instructions: 50 mg of fresh skin sample was added with 450 μL of PBS (pH=7.2 to 7.4), homogenized on ice, and centrifuged at 5000 rpm for 15 minutes, and then a supernatant was used for detection. A standard substance was diluted according to a proportion, and a blank well, a standard substance well and a well for sample to be detected were set respectively. 50 μL of standard substance was accurately loaded to an ELISA coating plate, and 40 μL of sample diluent was added into the well for sample to be detected firstly, and then added with 10 μL of sample to be detected (a final dilution concentration of the sample was 5 times). The sample was loaded to bottoms of the wells in the ELISA plate without touching walls of the wells to the greatest extent, and then shaken and mixed gently. After sealing the plate with a microplate sealer, the mixture was incubated at 37° C. for 30 minutes. A 30-times concentrated cleaning solution was diluted 30 times with distilled water for later use. The microplate sealer was carefully removed, the liquid was discarded, and the remaining was subjected to spin-drying, and the cleaning solution was fully filled into each well, stood for 30 seconds and then discarded. The steps were repeated for 5 times, and then the mixture was patted dry. 50 μL of ELISA reagent was added into each well, except for the blank well. After sealing the plate with a microplate sealer, the mixture was incubated at 37° C. for 30 minutes. The microplate sealer was carefully removed, the liquid was discarded, and the remaining was subjected to spin-drying, and the cleaning solution was fully filled into each well, stood for 30 seconds and then discarded. […] An absorbance (OD value) of each well was measured sequentially at a wavelength of 450 nm. […]

mTRPV3 = biological target: T1, mTRPV3 (Mus musculus, UniProt Q8K424); experiment: Whole-cell patch clamp of 2-APB induced current in mTRPV3-HEK-293 cells; assay type: cell-based
T1 construct: expressed in transfected cells
T1 sequence (Q8K424 1-791): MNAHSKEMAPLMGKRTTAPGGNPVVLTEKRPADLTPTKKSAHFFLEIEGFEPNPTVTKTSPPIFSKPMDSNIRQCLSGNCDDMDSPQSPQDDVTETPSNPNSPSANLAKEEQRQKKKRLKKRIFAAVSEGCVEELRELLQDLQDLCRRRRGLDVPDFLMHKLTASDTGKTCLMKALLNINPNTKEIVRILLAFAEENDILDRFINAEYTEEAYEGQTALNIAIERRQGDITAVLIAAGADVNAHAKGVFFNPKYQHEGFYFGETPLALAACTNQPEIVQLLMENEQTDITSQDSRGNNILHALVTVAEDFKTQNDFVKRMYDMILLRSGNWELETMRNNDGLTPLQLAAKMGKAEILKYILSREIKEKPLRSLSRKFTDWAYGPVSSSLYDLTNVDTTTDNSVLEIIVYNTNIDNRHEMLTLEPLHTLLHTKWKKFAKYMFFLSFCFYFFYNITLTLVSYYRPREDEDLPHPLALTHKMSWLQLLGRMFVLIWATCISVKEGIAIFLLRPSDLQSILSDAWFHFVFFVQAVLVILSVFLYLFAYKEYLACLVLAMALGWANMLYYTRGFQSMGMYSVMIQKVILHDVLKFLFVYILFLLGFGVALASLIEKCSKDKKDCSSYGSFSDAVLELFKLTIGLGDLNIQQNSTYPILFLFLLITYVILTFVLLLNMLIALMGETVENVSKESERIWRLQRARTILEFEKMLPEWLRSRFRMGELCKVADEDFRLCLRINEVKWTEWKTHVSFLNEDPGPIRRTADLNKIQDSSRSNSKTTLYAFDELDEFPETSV
Experimental: mTRPV3 plasmids were donated by Professor Jie Zheng from UC Davis. Transfection steps were as follows: HEK-293 cells with a confluence ranging from 70% to 80% and a good growth state were seeded into T-60 small dishes the day before transfection, each small dish contained 4×10^5 cells, and the cells were cultured without penicillin/streptomycin overnight at 37° C. in 5% CO2. 10 μL of plasmids (plasmid concentration was 1000 ng/μL) were diluted with 250 μl of DMEM (article number: 12800017, Gibco), and meanwhile, 10 μL of Lipofectamine 2000 (article number: 11668027, Gibco) was diluted into 250 μL of DMEM. […] Monoclone cells were selected by a limiting dilution method: the screened cells were digested and counted, and seeded into a 96-well plate in sequence at densities of 10^4 cells/well, 10^3 cells/well, 10^2 cells/well, 10 cells/well, and 1 cell/well. Under a fluorescence microscope, wells of separate cells with green fluorescence were labeled, and cells amplified from the wells were HEK-293 cells stably transfecting the mTRPV3. […] HEK-293 cells stably transecting mTRPV3 (mTRPV3-HEK-293) were seeded into T-60 small dishes with a confluence ranging from 20% to 30%, and whole cell current was recorded by a patch clamp amplification system next day. […]

[3] = ELISA, vs modeling mouse applied with IMQ

## O=c1cc(-c2ccc(O)cc2)oc2cc(O)c(O)c(O)c12 [Scutellarein]
[1]
  neutrophil infiltration: obviously reduce
[2]; 5% IMQ model
  secretion of the related inflammatory factors: obviously reduce
[2]; [3]
  content of CXCL15 in the skin: significantly lower
  content of MPO in the skin: significantly lower
mTRPV3; Scutellarein 0.3-30 μM, 2-APB 100 μM, mTRPV3-HEK-293
  inhibition of whole-cell current induced by 2-APB: could inhibit the whole-cell current induced by the 2-APB and had a dose dependence; also recorded: obvious inhibitory effect
mTRPV3; whole-cell patch clamp, mTRPV3-HEK-293, 2-APB 100 μM, nonlinear fitting
  IC50: 1010 nM
